The Ki is the dissociation constant of the complex between target and ligand, obtained from inhibition or displacement. In general, IC50 refers to the concentration that inhibits the measured activity by half.

Test [1] has as its target T1, TrCel7A (Trichoderma reesei, UniProt P62694).
T1 construct: TrCel7A was purified from the culture filtrate of Tr QM 9414 as described previously; made in house; host or cells: Trichoderma reesei QM 9414 culture filtrate (native producer)
The test is described as follows: Cellobiose inhibition of MUL hydrolysis by TrCel7A. The note with it: Ki for cellobiose, MUL substrate (5 μM). Format: biochemical. An excerpt:
The cellobiose inhibition of GH7 CBHs is most often studied on low-Mw model substrates. However, it has been shown that the inhibition of CBHs acting on low-Mw substrates appears to be much stronger than that on cellulose substrates. The Ki values for cellobiose inhibition of GH7 CBHs measured on low-Mw substrates are in the micromolar range [44, 51, 52], whereas those measured on cellulose are in the low- to high-millimolar range [28, 31, 32]. […] Unfortunately, the inhibition of this enzyme on cellulose has not been studied. We also studied the cellobiose inhibition of GH7 CBHs acting on MUL. The initial rates of MUL hydrolysis measured in the presence and absence of added cellobiose were first analyzed according to Equation 1, and the IC50 values were found using Equation 2. […] The inhibition of MUL hydrolysis is attributable to the binding of cellobiose to the product sites (+1/+2) of TrCel7A [52]. […]
For the inhibition of enzyme acting on the low-Mw substrate, the initial rates of the hydrolysis of MUL in the presence and absence of added cellobiose were followed. […] Reactions were stopped by the addition of NH3 (final concentration 0.1 M), and the released 4-methylumbelliferone was quantified by fluorescence using excitation and emission wavelengths of 360 nm and 450 nm, respectively.

The target of test [2] is T1, TrCel7A. Details: method as in PMID 22733813. The note with it: read-out: IC50 for cellobiose, 14C-BC substrate, 25°C; cited from earlier work.
The subject of test [3] is TrCel12A. Details: method as in PMID 15129433. To be noted: 3H-reduced amorphous cellulose, cellobiose 1 mM – 100 mM; cited from earlier work.
Test [4] deals with T2, TrCel6A (Trichoderma reesei, UniProt P07987).
T2 construct: TrCel6A was purified from the culture filtrate of Tr QM 9414 as described previously; made in house; host or cells: Trichoderma reesei QM 9414 culture filtrate (native producer)
The test is described as follows: Cellobiose inhibition of synergistic hydrolysis of 14C-BC by TrCel6A and EG TrCel5A. It is filed as biochemical. An excerpt: Here, we characterized the cellobiose and glucose inhibition of TrCel6A and its thermophilic counterpart, CtCel6A [9, 63]. First, the cellobiose inhibition of the synergistic hydrolysis of ^14C-BC by TrCel6A and TrCel5A was studied (Figure 7A). As TrCel6A was less sensitive to cellobiose inhibition than TrCel7A, the contribution of the cellobiose released during hydrolysis was not significant, and an average (DCB/DCB=0) over all time points was used in plotting (DCB/DCB=0) versus [cellobiose] (Figure 7D). No significant systematic variation of DCB/DCB=0 depending on hydrolysis time was observed. As in the case of GH7 CBHs, the IC50 value was found using Equations 5 and 6. Because the IC50 value for synergistic hydrolysis (Table 3) was of the same order as the apparent Ki value reported for TrCel5A [31], we further tested the inhibition of individual TrCel6A. BC is not a good substrate for TrCel6A, but its acid-treated derivative, BMCC, is readily degraded by the enzyme. Therefore, we prepared ^14C-BMCC by the heterogeneous acid hydrolysis of ^14C-BC. Without supplied cellobiose, both enzymes had similar activity with the ^14C-BMCC substrate, but CtCel6A was somewhat more resistant to cellobiose inhibition (Figure 7D, Table 3). The IC50 value for TrCel6A by itself was similar to that found for the synergistic hydrolysis. […]

The target of test [5] is Cel7A from Trichoderma harzianum. Details: method as in PMID 23114223. The note with it: hydrolysis of chloro-nitrophenyl lactoside; read-out: Ki value for cellobiose inhibition; cited from earlier work.

T1 sequence (P62694 18-513): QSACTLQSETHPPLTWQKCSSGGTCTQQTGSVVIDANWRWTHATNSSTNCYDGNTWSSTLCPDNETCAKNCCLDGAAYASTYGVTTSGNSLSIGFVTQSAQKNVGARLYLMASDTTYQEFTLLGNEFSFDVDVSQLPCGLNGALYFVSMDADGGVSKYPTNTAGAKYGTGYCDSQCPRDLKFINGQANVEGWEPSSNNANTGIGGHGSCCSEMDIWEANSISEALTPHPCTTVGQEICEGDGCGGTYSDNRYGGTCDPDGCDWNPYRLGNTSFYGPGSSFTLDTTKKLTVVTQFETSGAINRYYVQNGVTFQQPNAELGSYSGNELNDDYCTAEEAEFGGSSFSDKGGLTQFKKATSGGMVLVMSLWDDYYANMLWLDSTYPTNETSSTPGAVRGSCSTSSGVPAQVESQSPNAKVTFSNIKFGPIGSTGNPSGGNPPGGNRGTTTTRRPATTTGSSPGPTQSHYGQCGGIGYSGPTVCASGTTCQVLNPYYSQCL
T2 sequence (P07987 25-471): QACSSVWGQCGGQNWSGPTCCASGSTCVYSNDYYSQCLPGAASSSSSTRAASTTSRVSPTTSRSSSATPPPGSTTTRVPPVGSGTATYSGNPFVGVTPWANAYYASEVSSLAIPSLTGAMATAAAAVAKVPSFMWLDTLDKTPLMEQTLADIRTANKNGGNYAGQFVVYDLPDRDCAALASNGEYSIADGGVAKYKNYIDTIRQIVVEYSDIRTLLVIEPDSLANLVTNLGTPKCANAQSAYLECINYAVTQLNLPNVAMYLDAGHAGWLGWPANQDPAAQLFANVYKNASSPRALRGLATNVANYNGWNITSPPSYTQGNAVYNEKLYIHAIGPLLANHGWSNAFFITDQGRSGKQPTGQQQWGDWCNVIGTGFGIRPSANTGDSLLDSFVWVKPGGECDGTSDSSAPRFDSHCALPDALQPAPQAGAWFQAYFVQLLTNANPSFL

For `O=C[C@H](O)[C@@H](O)[C@H](O[C@@H]1O[C@H](CO)[C@@H](O)[C@H](O)[C@H]1O)[C@H](O)CO` [cellobiose, Cellobiose], the Ki in test [1] (35°C) was 40 µM; in test [1] (50°C), 124 µM; in test [5], 7200 µM. Also, the half-maximal inhibitory concentration (IC50) in test [2] was 380 ± 30 µM; in test [4], 16000 ± 500 µM. For the same molecule, the “Effect of cellobiose on activity” value in test [3] was “apparent activation”.

The values above are taken from article PMC3726336, “Product inhibition of cellulases studied with ^14C-labeled cellulose substrates” (Biotechnology for Biofuels, 2013).
